Source: ChEMBL document CHEMBL5715954, “Silencing c-Myc translation as a therapeutic strategy through targeting PI3Kδ and CK1ε in hematological malignancies” (Blood, 2017)

Legend:
Design in all cases: scale not given: the % may be the effect or the level left
[1] = target: CDK1/Cyclin E (Homo sapiens) (UniProt P06493+P24864); assay: Inhibition of human CDK1/cyclin E assessed as enzyme activity at 1 uM using RB Protein as substrate preincubated for 20 mins followed by [gamma-33P]-ATP addition and measured after 120 mins by radiometric Hot-SpotSM Kinase assay relative to control; type: protein-complex assay
[2] = target: CDK6/cyclin D3 (Homo sapiens) (UniProt P30281+Q00534); assay: Inhibition of human CDK6/cyclin D3 assessed as enzyme activity at 1 uM using RB Protein as substrate preincubated for 20 mins followed by [gamma-33P]-ATP addition and measured after 120 mins by radiometric Hot-SpotSM Kinase assay relative to control; type: protein-complex assay
[3] = target: Dual specificity protein kinase CLK2 (Homo sapiens) (UniProt P49760); assay: Inhibition of human CLK2 assessed as enzyme activity at 1 uM using myelin basic protein as substrate preincubated for 20 mins followed by [gamma-33P]-ATP addition and measured after 120 mins by radiometric Hot-SpotSM Kinase assay relative to control
[4] = target: Vascular endothelial growth factor receptor 1 (Homo sapiens) (UniProt P17948); assay: Inhibition of human FLT1 assessed as enzyme activity at 1 uM using poly[Glu:Tyr] (4:1) as substrate preincubated for 20 mins followed by [gamma-33P]-ATP addition and measured after 120 mins by radiometric Hot-SpotSM Kinase assay relative to control
[5] = target: T1, Serine/threonine-protein kinase MAK (Homo sapiens) (UniProt P20794); assay: Inhibition of human MAK assessed as enzyme activity at 1 uM using myelin basic protein as substrate preincubated for 20 mins followed by [gamma-33P]-ATP addition and measured after 120 mins by radiometric Hot-SpotSM Kinase assay relative to control
T1 sequence (whole entry): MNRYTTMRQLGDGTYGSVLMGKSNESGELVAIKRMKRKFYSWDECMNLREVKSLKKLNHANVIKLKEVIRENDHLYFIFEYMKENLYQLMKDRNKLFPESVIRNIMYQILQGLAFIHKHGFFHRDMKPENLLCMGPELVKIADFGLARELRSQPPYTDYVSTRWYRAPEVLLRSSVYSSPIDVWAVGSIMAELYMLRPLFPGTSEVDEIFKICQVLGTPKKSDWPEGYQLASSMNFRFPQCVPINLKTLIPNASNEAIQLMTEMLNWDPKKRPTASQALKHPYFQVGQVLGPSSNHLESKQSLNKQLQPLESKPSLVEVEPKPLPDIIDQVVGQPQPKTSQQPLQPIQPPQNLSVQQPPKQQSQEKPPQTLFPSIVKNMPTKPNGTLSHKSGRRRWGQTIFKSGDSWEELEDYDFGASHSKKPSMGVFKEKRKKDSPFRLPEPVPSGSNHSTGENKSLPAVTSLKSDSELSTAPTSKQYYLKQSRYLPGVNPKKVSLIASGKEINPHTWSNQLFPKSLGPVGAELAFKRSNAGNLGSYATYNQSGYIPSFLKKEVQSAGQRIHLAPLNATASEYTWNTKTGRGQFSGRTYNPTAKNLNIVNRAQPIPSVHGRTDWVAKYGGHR

[6] = target: T2, Myosin light chain kinase (Homo sapiens) (UniProt Q32MK0); assay: Inhibition of human MYLK3 assessed as enzyme activity at 1 uM using KKRPQRRYSNVF as substrate preincubated for 20 mins followed by [gamma-33P]-ATP addition and measured after 120 mins by radiometric Hot-SpotSM Kinase assay relative to control
T2 sequence (whole entry): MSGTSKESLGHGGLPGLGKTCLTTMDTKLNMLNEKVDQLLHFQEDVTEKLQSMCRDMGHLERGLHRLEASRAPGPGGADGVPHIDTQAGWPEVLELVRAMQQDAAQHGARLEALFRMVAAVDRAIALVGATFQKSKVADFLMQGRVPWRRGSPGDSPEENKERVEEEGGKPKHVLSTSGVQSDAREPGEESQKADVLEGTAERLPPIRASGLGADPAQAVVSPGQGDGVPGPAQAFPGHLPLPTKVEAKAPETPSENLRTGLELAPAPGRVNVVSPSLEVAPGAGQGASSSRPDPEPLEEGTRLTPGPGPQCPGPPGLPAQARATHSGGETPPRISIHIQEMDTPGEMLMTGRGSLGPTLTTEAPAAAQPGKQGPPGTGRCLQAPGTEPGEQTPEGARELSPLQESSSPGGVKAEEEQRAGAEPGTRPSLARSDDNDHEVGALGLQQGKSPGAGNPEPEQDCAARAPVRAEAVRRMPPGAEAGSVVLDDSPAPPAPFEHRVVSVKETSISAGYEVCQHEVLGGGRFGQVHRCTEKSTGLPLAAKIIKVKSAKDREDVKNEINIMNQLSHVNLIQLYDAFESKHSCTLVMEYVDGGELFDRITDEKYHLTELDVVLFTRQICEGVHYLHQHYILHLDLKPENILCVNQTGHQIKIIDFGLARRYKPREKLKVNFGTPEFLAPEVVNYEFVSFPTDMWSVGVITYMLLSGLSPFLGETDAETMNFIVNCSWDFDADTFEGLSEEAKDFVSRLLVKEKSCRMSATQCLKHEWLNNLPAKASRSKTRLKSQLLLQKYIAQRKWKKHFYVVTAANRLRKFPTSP

[7] = target: Protein kinase C theta type (Homo sapiens) (UniProt Q04759); assay: Inhibition of human PKCtheta assessed as enzyme activity at 1 uM using ERMRPRKRQGSVRRRV as substrate preincubated for 20 mins followed by [gamma-33P]-ATP addition and measured after 120 mins by radiometric Hot-SpotSM Kinase assay relative to control
[8] = target: Serine/threonine-protein kinase 32B (Homo sapiens) (UniProt Q9NY57); assay: Inhibition of human STK32B assessed as enzyme activity at 1 uM using myelin basic protein as substrate preincubated for 20 mins followed by [gamma-33P]-ATP addition and measured after 120 mins by radiometric Hot-SpotSM Kinase assay relative to control
[9] = target: Serine/threonine-protein kinase 38 (Homo sapiens) (UniProt Q15208); assay: Inhibition of human STK38 assessed as enzyme activity at 1 uM using KKRNRRLSVA as substrate preincubated for 20 mins followed by [gamma-33P]-ATP addition and measured after 120 mins by radiometric Hot-SpotSM Kinase assay relative to control
Sequence of Serine/threonine-protein kinase 38 (Homo sapiens) (Q15208 2-465 limits assumed): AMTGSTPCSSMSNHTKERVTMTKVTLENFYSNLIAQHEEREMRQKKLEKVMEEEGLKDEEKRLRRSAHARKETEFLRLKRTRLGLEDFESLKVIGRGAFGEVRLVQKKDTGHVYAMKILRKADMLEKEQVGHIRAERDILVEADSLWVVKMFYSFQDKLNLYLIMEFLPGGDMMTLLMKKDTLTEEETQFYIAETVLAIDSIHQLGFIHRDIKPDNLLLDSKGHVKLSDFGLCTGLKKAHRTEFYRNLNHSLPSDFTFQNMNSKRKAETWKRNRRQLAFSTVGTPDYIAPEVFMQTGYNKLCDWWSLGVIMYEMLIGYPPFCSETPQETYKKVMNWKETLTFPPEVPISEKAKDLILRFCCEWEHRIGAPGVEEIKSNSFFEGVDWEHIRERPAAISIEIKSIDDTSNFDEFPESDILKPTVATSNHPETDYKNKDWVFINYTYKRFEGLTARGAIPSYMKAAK

Sequence of Serine/threonine-protein kinase 32B (Homo sapiens) (Q9NY57 whole entry): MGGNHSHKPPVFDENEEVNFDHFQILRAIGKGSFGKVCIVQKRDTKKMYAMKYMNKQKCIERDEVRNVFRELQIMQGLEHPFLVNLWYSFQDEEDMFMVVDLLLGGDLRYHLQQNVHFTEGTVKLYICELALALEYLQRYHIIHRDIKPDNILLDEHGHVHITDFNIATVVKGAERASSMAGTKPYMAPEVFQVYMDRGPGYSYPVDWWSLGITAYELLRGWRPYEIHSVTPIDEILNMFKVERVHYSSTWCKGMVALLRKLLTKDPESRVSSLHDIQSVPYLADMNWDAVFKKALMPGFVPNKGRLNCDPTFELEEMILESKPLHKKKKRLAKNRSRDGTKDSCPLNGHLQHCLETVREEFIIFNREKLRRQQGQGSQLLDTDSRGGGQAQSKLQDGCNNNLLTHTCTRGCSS
Sequence of Protein kinase C theta type (Homo sapiens) (Q04759 whole entry, looked up): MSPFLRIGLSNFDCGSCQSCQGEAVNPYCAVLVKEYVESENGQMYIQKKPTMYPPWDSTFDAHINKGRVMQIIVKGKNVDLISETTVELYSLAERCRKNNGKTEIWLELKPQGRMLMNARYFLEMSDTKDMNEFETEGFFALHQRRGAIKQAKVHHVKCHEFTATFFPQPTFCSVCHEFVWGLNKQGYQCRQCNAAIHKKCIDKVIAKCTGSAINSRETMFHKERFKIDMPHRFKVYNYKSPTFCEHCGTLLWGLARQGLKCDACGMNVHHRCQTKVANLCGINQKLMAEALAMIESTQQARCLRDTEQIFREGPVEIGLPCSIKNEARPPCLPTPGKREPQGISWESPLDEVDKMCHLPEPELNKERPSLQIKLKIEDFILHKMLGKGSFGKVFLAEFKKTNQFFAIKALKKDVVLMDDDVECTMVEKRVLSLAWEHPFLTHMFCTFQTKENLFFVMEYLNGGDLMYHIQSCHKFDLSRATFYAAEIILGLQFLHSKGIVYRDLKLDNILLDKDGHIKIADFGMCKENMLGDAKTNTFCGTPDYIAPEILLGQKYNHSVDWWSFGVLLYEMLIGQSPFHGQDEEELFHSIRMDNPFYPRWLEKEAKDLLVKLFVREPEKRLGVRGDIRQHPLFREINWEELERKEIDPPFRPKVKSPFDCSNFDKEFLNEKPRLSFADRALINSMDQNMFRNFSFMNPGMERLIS
Sequence of Dual specificity protein kinase CLK2 (Homo sapiens) (P49760 whole entry, looked up): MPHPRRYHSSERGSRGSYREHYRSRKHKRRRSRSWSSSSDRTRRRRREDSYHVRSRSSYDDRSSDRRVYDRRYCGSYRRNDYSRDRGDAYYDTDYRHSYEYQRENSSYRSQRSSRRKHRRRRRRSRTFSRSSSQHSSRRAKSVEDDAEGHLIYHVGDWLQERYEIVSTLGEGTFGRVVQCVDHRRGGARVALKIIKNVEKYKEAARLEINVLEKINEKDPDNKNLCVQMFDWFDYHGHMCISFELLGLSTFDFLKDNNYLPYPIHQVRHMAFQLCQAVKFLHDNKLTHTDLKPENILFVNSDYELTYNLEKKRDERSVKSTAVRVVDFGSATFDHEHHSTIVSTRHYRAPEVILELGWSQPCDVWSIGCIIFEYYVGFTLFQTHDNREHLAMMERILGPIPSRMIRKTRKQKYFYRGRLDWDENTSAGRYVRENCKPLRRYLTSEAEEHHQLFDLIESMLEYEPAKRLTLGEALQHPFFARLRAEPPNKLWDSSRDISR
Sequence of Vascular endothelial growth factor receptor 1 (Homo sapiens) (P17948 whole entry): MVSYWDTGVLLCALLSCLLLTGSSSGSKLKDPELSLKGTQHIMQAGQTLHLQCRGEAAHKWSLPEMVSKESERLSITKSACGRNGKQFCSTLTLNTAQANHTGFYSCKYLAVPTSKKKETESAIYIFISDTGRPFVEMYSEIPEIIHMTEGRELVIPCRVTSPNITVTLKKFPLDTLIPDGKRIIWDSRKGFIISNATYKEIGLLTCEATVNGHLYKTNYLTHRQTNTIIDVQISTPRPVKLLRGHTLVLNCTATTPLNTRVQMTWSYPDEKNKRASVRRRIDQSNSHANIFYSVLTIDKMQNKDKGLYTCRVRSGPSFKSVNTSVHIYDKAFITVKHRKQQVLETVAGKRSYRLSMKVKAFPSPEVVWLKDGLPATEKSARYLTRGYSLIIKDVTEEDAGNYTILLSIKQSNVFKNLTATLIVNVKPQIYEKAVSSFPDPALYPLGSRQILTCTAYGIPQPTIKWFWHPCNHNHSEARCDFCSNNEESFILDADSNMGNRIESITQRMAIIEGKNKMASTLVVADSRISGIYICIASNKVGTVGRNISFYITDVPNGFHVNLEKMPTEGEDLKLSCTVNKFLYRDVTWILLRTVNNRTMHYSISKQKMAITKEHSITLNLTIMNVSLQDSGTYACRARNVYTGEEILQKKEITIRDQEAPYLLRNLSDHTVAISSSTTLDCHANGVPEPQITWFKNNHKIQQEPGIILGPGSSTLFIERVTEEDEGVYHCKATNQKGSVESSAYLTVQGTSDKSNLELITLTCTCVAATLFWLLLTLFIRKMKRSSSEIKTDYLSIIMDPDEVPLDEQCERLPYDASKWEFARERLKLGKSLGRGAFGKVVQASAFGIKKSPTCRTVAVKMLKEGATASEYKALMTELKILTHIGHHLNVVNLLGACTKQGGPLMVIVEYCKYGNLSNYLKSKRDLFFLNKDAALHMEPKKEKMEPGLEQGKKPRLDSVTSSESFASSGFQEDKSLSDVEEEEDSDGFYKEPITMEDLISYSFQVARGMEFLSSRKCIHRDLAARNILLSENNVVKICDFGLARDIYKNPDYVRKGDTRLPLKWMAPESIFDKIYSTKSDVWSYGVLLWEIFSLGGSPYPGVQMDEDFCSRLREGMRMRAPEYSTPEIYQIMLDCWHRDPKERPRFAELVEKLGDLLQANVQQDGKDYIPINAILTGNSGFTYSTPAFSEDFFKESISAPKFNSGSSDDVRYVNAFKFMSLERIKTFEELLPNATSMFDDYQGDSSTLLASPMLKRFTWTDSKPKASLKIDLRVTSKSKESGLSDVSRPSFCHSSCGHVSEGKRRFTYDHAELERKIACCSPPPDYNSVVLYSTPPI
Sequence of CDK1/Cyclin E (Homo sapiens) (P06493 whole entry, looked up): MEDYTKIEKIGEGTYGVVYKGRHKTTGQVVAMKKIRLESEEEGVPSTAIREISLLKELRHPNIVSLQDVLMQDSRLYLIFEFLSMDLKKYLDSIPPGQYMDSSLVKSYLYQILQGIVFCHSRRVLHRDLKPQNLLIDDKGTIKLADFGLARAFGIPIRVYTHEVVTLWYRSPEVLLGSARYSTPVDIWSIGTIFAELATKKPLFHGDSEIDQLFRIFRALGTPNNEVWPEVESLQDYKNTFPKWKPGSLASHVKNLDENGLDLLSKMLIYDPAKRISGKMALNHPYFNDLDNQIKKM
Sequence of CDK1/Cyclin E (Homo sapiens) (P24864 whole entry, looked up): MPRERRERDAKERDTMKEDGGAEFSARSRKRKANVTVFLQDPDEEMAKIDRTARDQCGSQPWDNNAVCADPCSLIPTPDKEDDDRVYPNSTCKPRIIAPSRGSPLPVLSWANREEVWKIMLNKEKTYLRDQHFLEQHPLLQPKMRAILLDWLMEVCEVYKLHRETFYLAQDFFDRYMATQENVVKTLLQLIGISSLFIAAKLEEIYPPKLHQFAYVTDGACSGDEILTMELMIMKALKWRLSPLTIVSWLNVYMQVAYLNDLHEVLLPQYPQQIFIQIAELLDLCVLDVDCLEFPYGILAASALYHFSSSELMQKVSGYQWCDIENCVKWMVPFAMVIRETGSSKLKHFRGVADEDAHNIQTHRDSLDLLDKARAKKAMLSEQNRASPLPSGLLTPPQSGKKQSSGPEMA

Structure (SMILES)	Activity [1]	Activity [2]	Activity [3]	Activity [4]	Activity [5]	Activity [6]	Activity [7]	Activity [8]	Activity [9]
CC[C@H](Nc1ncnc2[nH]cnc12)c1nc2cccc(F)c2c(=O)n1-c1ccccc1	88.5%	102%	96.9%	94.4%	92.5%	91.8%	109%	120%	94.5%
CC(C)Oc1ccc(-c2nn([C@@H](C)c3oc4ccc(F)cc4c(=O)c3-c3cccc(F)c3)c3ncnc(N)c23)cc1F [UMBRALISIB]	86%	97.8%	99.5%	92.3%	96.5%	105%	106%	114%	91.4%
C[C@H](Nc1ncnc2nc[nH]c12)c1cc2cccc(Cl)c2c(=O)n1-c1ccccc1	91.5%	96.5%	95.3%	94.3%	98.5%	98.2%	112%	116%	86.5%
